# Experimental data taken from US7585895B2, “Therapeutic substituted cyclopentanes” (Allergan, Inc., priority 2005, dated 2009).
# Legend:
# EP4 receptors = target: T1, EP4 receptors (Homo sapiens, UniProt P35408); test: Radioligand binding, [3H]PGE2, EP4 (Ki); details: HEK-293 cells stably expressing EP4, [3H]PGE2
# T1 construct: expressed in transfected cells; membrane pellet
# Protocol: (§1) HEK-293 cells stably expressing the human or feline FP receptor, or EP1, EP2, or EP4 receptors were washed with TME buffer, scraped from the bottom of the flasks, and homogenized for 30 sec using a Brinkman PT 10/35 polytron. TME buffer was added to achieve a final 40 ml volume in the centrifuge tubes (the composition of TME is 100 mM TRIS base, 20 mM MgCl2, […]; 10N HCl is added to achieve a pH of 7.4).
# (§2) The cell homogenate was centrifuged at 19000 r.p.m. for 20 min at 4° C using a Beckman Ti-60 rotor. The resultant pellet was resuspended in TME buffer to give a final 1 mg/ml protein concentration, as determined by Biorad assay. Radioligand binding competition assays vs. [^3H-]17-phenyl PGF2α. (5 nM) were performed in a 100 μl volume for 60 min. Binding reactions were started by adding plasma membrane fraction. The reaction was terminated by the addition of 4 ml ice-cold TRIS-HCl buffer and rapid filtration through glass fiber GF/B filters using a Brandel cell harvester. The filters were washed 3 times with ice-cold buffer and oven dried for one hour.
# (§3) [^3H-] PGE2 (specific activity 180 Ci mmol) was used as the radioligand for EP receptors. [^3H] 17-phenyl PGF2α, was employed for FP receptor binding studies. Binding studies employing EP1, EP2, EP4 and FP receptors were performed in duplicate in at least three separate experiments. A 200 μl assay volume was used. Incubations were for 60 min at 25° C. and were terminated by the addition of 4 ml of ice-cold 50 mM TRIS-HCl, followed by rapid filtration through Whatman GF/B filters and three additional 4 ml washes in a cell harvester (Brandel). Competition studies were performed using a final concentration of 5 nM [^3H]-PGE2, or 5 nM [^3H] 17-phenyl PGF2αand non-specific binding determined with 10^−5M of unlabeled PGE2, or 17-phenyl PGF2α, according to receptor subtype studied.
# hEP2/Gqs5 = target: T2, hEP2/Gqs5 (Homo sapiens, UniProt P43116); test: FLIPR calcium signal, EP2; assay type: cell-based; details: HEK-293(EBNA), value outside parentheses, read-out: Ca2+ Signal-EC50 (nM) EP2
# T2 construct: expressed in transfected cells
# Protocol: (§4) HEK-293(EBNA) cells, stably expressing one type or subtype of recombinant human prostaglandin receptors (prostaglandin receptors expressed: hDP/Gqs5; hEP1; hEP2/Gqs5; hEP3A/Gqi5; hEP4/Gqs5; hFP; hIP; hTP), were cultured in 100 mm culture dishes in high-glucose DMEM medium containing 10% fetal bovine serum, 2 mM 1-glutamine, 250 μg/ml geneticin (G418) and 200 μg/ml hygromycin B as selection markers, and 100 units/ml penicillin G, 100 μg/ml streptomycin and 0.25 μg/ml amphotericin B.
# (§5) Cells were seeded at a density of 5×10^4 cells per well in Biocoat® Poly-D-lysine-coated black-wall, clear-bottom 96-well plates (Becton-Dickinson) and allowed to attach overnight in an incubator at 37° C. Cells were then washed two times with HBSS-HEPES buffer (Hanks Balanced Salt Solution without bicarbonate and phenol red, 20 mM HEPES, pH 7.4) using a Denley Cellwash plate washer (Labsystems). After 45 minutes of dye-loading in the dark, using the calcium-sensitive dye Fluo-4 AM at a final concentration of 2 μM, plates were washed four times with HBSS-HEPES buffer to remove excess dye leaving 100 μl in each well. Plates were re-equilibrated to 37° C. for a few minutes.
# (§6) Cells were excited with an Argon laser at 488 nm, and emission was measured through a 510-570 nm bandwidth emission filter (FLIPR™, Molecular Devices, Sunnyvale, Calif.). Drug solution was added in a 50 μl volume to each well to give the desired final concentration. The peak increase in fluorescence intensity was recorded for each well. On each plate, four wells each served as negative (HBSS-HEPES buffer) and positive controls (standard agonists: BW245C (hDP); PGE2 (HEP1; hEP2/Gqs5; hEP3A/Gqi5; hEP4/Gqs5); PGF2α (hFP); carbacyclin (hIP); U-46619 (hTP), depending on receptor). The peak fluorescence change in each drug-containing well was then expressed relative to the controls.
# (§7) Compounds were tested in a high-throughput (HTS) or concentration-response (CoRe) format. In the HTS format, forty-four compounds per plate were examined in duplicates at a concentration of 10^−5 M. To generate concentration-response curves, four compounds per plate were tested in duplicates in a concentration range between 10^−5 and 10^−11 M. The duplicate values were averaged. In either, HTS or CoRe format each compound was tested on at least 3 separate plates using cells from different passages to give an n≧3.
# hDP/Gqs5 = target: T3, hDP/Gqs5 (Homo sapiens, UniProt Q13258); test: FLIPR calcium signal, DP; assay type: cell-based; details: HEK-293(EBNA)
# T3 construct: expressed in transfected cells
# T3 sequence (Q13258 1-359): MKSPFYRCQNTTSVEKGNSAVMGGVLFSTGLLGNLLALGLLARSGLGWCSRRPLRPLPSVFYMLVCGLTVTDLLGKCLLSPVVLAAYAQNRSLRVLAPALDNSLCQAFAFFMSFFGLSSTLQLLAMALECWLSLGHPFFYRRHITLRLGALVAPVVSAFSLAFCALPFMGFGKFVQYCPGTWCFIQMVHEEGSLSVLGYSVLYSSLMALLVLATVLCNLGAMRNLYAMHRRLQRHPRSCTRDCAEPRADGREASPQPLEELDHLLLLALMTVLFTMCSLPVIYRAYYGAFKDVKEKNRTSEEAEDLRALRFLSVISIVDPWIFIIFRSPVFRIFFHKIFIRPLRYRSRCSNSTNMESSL
# Protocol: as §4, §5, §6, §7
# EP2 = EP2 (Homo sapiens, UniProt P43116); test: Competition binding, [3H]PGE2, EP2 (Ki); set-up: expressed in transfected cells; membranes or whole cells; details: HEK 293 cells stably expressing human EP2, [3H]PGE2
# Protocol: Competition binding experiments were performed in a medium containing Hank's balanced salt solution, Hepes 20 mM, pH 7.3, membranes (˜60 μg protein) or 2×10^5 cells from HEK 293 cells stably expressing human EP2 receptors, [^3H]PGE2 (10 nM) and various concentrations of test compounds in a total volume of 300 μl. Reaction mixtures were incubated at 23° C. for 60 min, and were filtered over Whatman GF/B filters under vacuum. Filters were washed three times with 5 ml ice-cold buffer containing 50 mM Tris/HCl (pH 7.3). Non-specific binding was estimated in the presence of excess unlabeled PGE2 (10 μM). Binding data fitted to the binding model for a single class of binding sites, using nonlinear regression analysis. IC50 values thus obtained were converted to Ki using the equation of Ki=(IC50/(1+[L]/KD) where [L] represents PGE2 concentration (10 nM) and KD the dissociation constant for [^3H]PGE2 at human EP2 receptors (40 nM).
# as §1, §2, §3
# T2 sequence (P43116 whole entry): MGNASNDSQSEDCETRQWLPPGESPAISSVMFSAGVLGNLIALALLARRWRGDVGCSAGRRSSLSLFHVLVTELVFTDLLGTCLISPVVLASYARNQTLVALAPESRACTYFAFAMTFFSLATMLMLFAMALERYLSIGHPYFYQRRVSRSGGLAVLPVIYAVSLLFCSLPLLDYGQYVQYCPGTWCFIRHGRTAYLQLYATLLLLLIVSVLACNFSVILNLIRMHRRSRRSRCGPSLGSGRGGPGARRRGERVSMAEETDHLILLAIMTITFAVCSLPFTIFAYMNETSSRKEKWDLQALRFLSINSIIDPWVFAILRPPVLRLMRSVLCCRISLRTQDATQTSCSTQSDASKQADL
# Chain of EP2 (P43116 whole entry): as above
# T1 sequence (P35408 whole entry): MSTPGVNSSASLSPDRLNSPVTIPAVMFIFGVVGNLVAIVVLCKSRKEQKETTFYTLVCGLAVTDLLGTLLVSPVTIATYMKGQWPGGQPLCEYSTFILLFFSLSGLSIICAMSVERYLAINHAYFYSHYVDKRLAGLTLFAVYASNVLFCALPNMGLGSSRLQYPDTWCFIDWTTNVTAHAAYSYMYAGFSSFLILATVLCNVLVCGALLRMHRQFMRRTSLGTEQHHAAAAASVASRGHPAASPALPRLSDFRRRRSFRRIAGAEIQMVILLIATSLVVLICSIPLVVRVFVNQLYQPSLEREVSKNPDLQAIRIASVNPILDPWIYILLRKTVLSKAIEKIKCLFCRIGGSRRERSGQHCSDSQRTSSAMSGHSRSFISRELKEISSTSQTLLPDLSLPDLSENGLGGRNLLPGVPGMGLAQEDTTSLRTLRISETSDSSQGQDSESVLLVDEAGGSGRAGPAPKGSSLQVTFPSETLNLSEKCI
Structure (SMILES),Ki (EP4 receptors),EC50 (hEP2/Gqs5),Ca2+ Signal-EC50 (nM) DP (hDP/Gqs5),Ki (EP2)
"CCCC1(C(O)c2cccc([C@@H]3[C@@H](Cc4cccc(CCC(=O)O)c4)[C@H](Cl)C[C@H]3O)c2)CCC1 (stereo partly drawn) [Entry 4, 3-[3-((1R,2S,3R,5R)-5-Chloro-3-hydroxy-2-{3-[hydroxy-(1-propyl-cyclobutyl)-methyl]-phenyl}-cyclopentylmethyl)-phenyl]-propionic acid]",> 10000 nM,4110 nM,not active,> 10000 nM
"CCCCCC(O)c1ccc([C@@H]2[C@@H](C/C=C\CCCC(=O)O)[C@@H](Cl)C[C@H]2O)cc1 (stereo partly drawn) [Entry 9, (Z)-7-{(1R,2S,3R,5S)-5-Chloro-3-hydroxy-2-[4-(1-hydroxy-hexyl)-phenyl]-cyclopentyl}-hept-5-enoic acid]",4590 nM,242 nM,not active,3950 nM
"CCCCCC(O)c1ccc([C@@H]2[C@@H](CCCCCCC(=O)O)[C@H](Cl)C[C@H]2O)cc1 (stereo partly drawn) [Entry 14, 7-{(1R,2S,3R,5R)-5-Chloro-3-hydroxy-2-[4-(1-hydroxy-hexyl)-phenyl]-cyclopentyl}-heptanoic acid]",8610 nM,28 nM,not active,287 nM
"O=C(O)CCC/C=C\C[C@@H]1[C@@H](c2ccc(C(O)CCC3CCCCC3)cc2)[C@H](O)C[C@H]1Cl (stereo partly drawn) [Entry 15, (Z)-7-{(1R,2S,3R,5R)-5-Chloro-2-[4-(3-cyclohexyl-1-hydroxy-propyl)-phenyl]-3-hydroxy-cyclopentyl}-hept-5-enoic acid]",3810 nM,495 nM,not active,260 nM
"O=C(O)CCCCCC[C@@H]1[C@@H](c2ccc(C(O)CCC3CCCCC3)cc2)[C@H](O)C[C@H]1Cl (stereo partly drawn) [Entry 16, 7-{(1R,2S,3R,5R)-5-Chloro-2-[4-(3-cyclohexyl-1-hydroxy-propyl)-phenyl]-3-hydroxy-cyclopentyl}-heptanoic acid]",5580 nM,2330 nM,not active,1290 nM
"O=C(O)CCCCCC[C@@H]1[C@@H](c2ccc(C(O)CC3CCCCC3)cc2)[C@H](O)C[C@H]1Cl (stereo partly drawn) [Entry 18, 7-{(1R,2S,3R,5R)-5-Chloro-2-[4-(2-cyclohexyl-1-hydroxy-ethyl)-phenyl]-3-hydroxy-cyclopentyl}-heptanoic acid]",4940 nM,2250 nM,not active,2290 nM
"O=C(O)CCCCCC[C@@H]1[C@@H](c2ccc(C(O)Cc3ccccc3)cc2)[C@H](O)C[C@H]1Cl (stereo partly drawn) [Entry 22, 7-{(1 R,2S,3R,5R)-5-Chloro-3-hydroxy-2-[4-(1-hydroxy-2-phenyl-ethyl)-phenyl]-cyclopentyl}-heptanoic acid]",> 10000 nM,51 nM,not active,148 nM
"O=C(O)CCC/C=C\C[C@@H]1[C@@H](c2ccc(C(O)CCc3ccccc3)cc2)[C@H](O)C[C@H]1Cl (stereo partly drawn) [Entry 23, (Z)-7-{(1R,2S,3R,5R)-5-Chloro-3-hydroxy-2-[4-(1-hydroxy-3-phenyl-propyl)-phenyl]-cyclopentyl}-hept-5-enoic acid]",> 10000 nM,548 nM,not active,1130 nM
"O=C(O)CCCCCC[C@@H]1[C@@H](c2ccc(C(O)CCc3ccccc3)cc2)[C@H](O)C[C@H]1Cl (stereo partly drawn) [Entry 24, 7-{(1R,2S,3R,5R)-5-Chloro-3-hydroxy-2-[4-(1-hydroxy-3-phenyl-propyl)-phenyl]-cyclopentyl}-heptanoic acid]",> 10000 nM,735 nM,not active,2160 nM
"CCCCCCC(O)c1ccc([C@@H]2[C@@H](C/C=C\CCCC(=O)O)[C@H](Cl)C[C@H]2O)cc1 (stereo partly drawn) [Entry 25, (Z)-7-{(1R,2S,3R,5R)-5-Chloro-3-hydroxy-2-[4-(1-hydroxy-heptyl)-phenyl]-cyclopentyl}-hept-5-enoic acid]",2260 nM,58 nM,not active,278 nM
"CCCC(O)c1ccc([C@@H]2[C@@H](C/C=C\CCCC(=O)O)[C@H](Cl)C[C@H]2O)cc1 (stereo partly drawn) [Entry 26, (Z)-7-{(1R,2S,3R,5R)-5-Chloro-3-hydroxy-2-[4-(1-hydroxy-butyl)-phenyl]-cyclopentyl}-hept-5-enoic acid]",> 10000 nM,154 nM,not active,1660 nM
"CCCCCC(O)c1cccc([C@@H]2[C@@H](C/C=C\CCCC(=O)O)[C@H](Cl)C[C@H]2O)c1 (stereo partly drawn) [Entry 29, (Z)-7-{(1R,2S,3R,5R)-5-Chloro-3-hydroxy-2-[3-(1-hydroxy-hexyl)-phenyl]-cyclopentyl}-hept-5-enoic acid]",> 10000 nM,119 nM,not active,1390 nM
"CCCCC(O)c1cccc([C@@H]2[C@@H](C/C=C\CCCC(=O)O)[C@H](Cl)C[C@H]2O)c1 (stereo partly drawn) [Entry 30, (Z)-7-{(1R,2S,3R,5R)-5-Chloro-3-hydroxy-2-[3-(1-hydroxy-pentyl)-phenyl]-cyclopentyl}-hept-5-enoic acid]",> 10000 nM,68 nM,not active,1260 nM
"CCCCCC(O)C(C)(C)c1ccc([C@@H]2[C@@H](C/C=C\CCCC(=O)O)[C@H](Cl)C[C@H]2O)cc1 (stereo partly drawn) [Entry 31, (Z)-7-{(1R,2S,3R,5R)-5-Chloro-3-hydroxy-2-[4-(2-hydroxy-1,1-dimethyl-heptyl)-phenyl]-cyclopentyl}-hept-5-enoic acid]",5410 nM,544 nM,not active,182 nM
